The values below come from ChEMBL document CHEMBL4184292, “Synthetic strigolactone analogues reveal anti-cancer activities on hepatocellular carcinoma cells” (Bioorg Med Chem Lett, 2018).

Active and inactive are the calls of the source. The rule behind the calls is not given here.

Data set [1] deals with HepG2. Briefly: Induction of apoptosis in human HepG2 cells assessed as early apoptotic cells at 80 uM after 24 hrs by Annexin-V/7AAD staining based flow cytometry (reference value: 5.1 to 12.5 %). In kind it is functional.
The test system of data set [2] is HepG2. The data set can be described thus: Induction of apoptosis in human HepG2 cells assessed as late apoptotic cells at 80 uM after 24 hrs by Annexin-V/7AAD staining based flow cytometry (reference value: 0.2 to 0.4%). The data set is classed as functional.
The test system of data set [3] is HepG2. The data set can be described thus: Antimigratory activity in human HepG2 cells at 100 uM after 24 hrs by wound-scratch assay. The data set is classed as functional, cell-based.
For data set [4], the system named is HepG2. The data set can be described thus: Growth inhibition of human HepG2 cells at 100 uM after 24 hrs. In kind it is functional, cell-based.
Data set [5] concerns HepG2. Briefly: Cytotoxicity against human HepG2 cells assessed as reduction in cell viability at 80 uM after 24 hrs by WST1 assay relative to control. The data set is classed as functional.
Data set [6] has as its system HepG2. Briefly: Cytotoxicity against human HepG2 cells assessed as reduction in cell viability after 24 hrs by WST1 assay. In kind it is functional, cell-based. Conditions: for IC50: HepG2, 24 h.
The nature of data set [7]: Cytotoxicity against BHK cells assessed as reduction in cell viability at 80 uM after 48 hrs by WST1 assay relative to control. The data set is classed as cell-based, Mesocricetus auratus. Conditions: hamster.
Data set [8] deals with PC-3. Briefly: Cytotoxicity against human PC3 cells assessed as reduction in cell viability after 24 hrs by WST1 assay. The data set is classed as functional, cell-based. Conditions: for IC50: PC-3, 24 h.
Data set [9] deals with Jurkat. The data set can be described thus: Cytotoxicity against human Jurkat cells assessed as reduction in cell viability after 24 hrs by WST1 assay. The data set is classed as functional, cell-based.
The test system of data set [10] is HepG2. Briefly: Cytotoxicity against human HepG2 cells assessed as reduction in cell viability at 80 uM by WST1 assay. In kind it is functional, cell-based. Conditions: TDE = time-dependent effect.
Data set [11] deals with HepG2. Briefly: Cytotoxicity against human HepG2 cells assessed as reduction in cell viability at 80 uM after 4 hrs by WST1 assay relative to control. The data set is classed as functional.
For data set [12], the system named is HepG2. The data set can be described thus: Cytotoxicity against human HepG2 cells assessed as reduction in cell viability at 80 uM after 8 hrs by WST1 assay relative to control. The data set is classed as functional.
The subject of data set [13] is HepG2. The data set can be described thus: Cytotoxicity against human HepG2 cells assessed as reduction in cell viability at 80 uM after 12 hrs by WST1 assay relative to control. In kind it is functional.
The subject of data set [14] is HepG2. The data set can be described thus: Induction of apoptosis in human HepG2 cells assessed as early apoptotic cells at 20 uM after 24 hrs by Annexin-V/7AAD staining based flow cytometry (reference value: 5.1 to 12.5 %). The data set is classed as functional.
For data set [15], the system named is HepG2. The data set can be described thus: Induction of apoptosis in human HepG2 cells assessed as late apoptotic cells at 20 uM after 24 hrs by Annexin-V/7AAD staining based flow cytometry (reference value: 0.2 to 0.4%). In kind it is functional.
Data set [16] has as its system HepG2. Briefly: Induction of apoptosis in human HepG2 cells assessed as early apoptotic cells at 40 uM after 24 hrs by Annexin-V/7AAD staining based flow cytometry (reference value: 5.1 to 12.5 %). The data set is classed as functional.
Data set [17] relates to HepG2. The data set can be described thus: Induction of apoptosis in human HepG2 cells assessed as late apoptotic cells at 40 uM after 24 hrs by Annexin-V/7AAD staining based flow cytometry (reference value: 0.2 to 0.4%). In kind it is functional.
The subject of data set [18] is HepG2. The data set can be described thus: Induction of apoptosis in human HepG2 cells assessed as early apoptotic cells at 60 uM after 24 hrs by Annexin-V/7AAD staining based flow cytometry (reference value: 5.1 to 12.5 %). In kind it is functional.
Data set [19] concerns HepG2. Briefly: Induction of apoptosis in human HepG2 cells assessed as late apoptotic cells at 60 uM after 24 hrs by Annexin-V/7AAD staining based flow cytometry (reference value: 0.2 to 0.4%). In kind it is functional.
Data set [20] relates to HepG2. The data set can be described thus: Induction of apoptosis in human HepG2 cells assessed as early apoptotic cells at 80 uM after 2 hrs by Annexin-V/7AAD staining based flow cytometry (reference value: 3.8 to 4.2 %). In kind it is functional.
Data set [21] has as its system HepG2. The data set can be described thus: Induction of apoptosis in human HepG2 cells assessed as late apoptotic cells at 80 uM after 2 hrs by Annexin-V/7AAD staining based flow cytometry (reference value: 0.2 to 0.7 %). In kind it is functional.
Data set [22] relates to HepG2. Briefly: Induction of apoptosis in human HepG2 cells assessed as early apoptotic cells at 80 uM after 6 hrs by Annexin-V/7AAD staining based flow cytometry (reference value: 3.8 to 4.2 %). In kind it is functional.
Data set [23] has as its system HepG2. The data set can be described thus: Induction of apoptosis in human HepG2 cells assessed as late apoptotic cells at 80 uM after 6 hrs by Annexin-V/7AAD staining based flow cytometry (reference value: 0.2 to 0.7 %). The data set is classed as functional.
The test system of data set [24] is HepG2. Briefly: Antimigratory activity in human HepG2 cells at 80 uM after 24 hrs by wound-scratch assay. In kind it is functional, cell-based.
The test system of data set [25] is HepG2. Briefly: Cytotoxicity against human HepG2 cells assessed as reduction in cell viability at 40 uM after 24 hrs by WST1 assay. The data set is classed as functional, cell-based.

Regarding `CC1=CC(=O)C(C(C)C)=CC1=O` [THYMOQUINONE], the Activity in [1] came out at 91.8%; in data set [2], 3.3%. The outcome in data set [3] was Active. For the same compound, the “growth inhibition (GI)” value in data set [4] is “Active”.
Regarding `COC(=O)/C(=C/OC1C=C(C)C(=O)O1)c1ccccc1` (stereo not drawn), the Activity is 63.4 - 73% in data set [5]; “Dose-dependent effect” in [6]; 18% in [7]; “Dose-dependent effect” in data set [8]; “Dose-dependent effect” in [9]; “Tde” in data set [10]. For the same compound, the Activity in [11] is 13%; in data set [12], 20%; in [13], 31%; in data set [14], 9.5%; in data set [15] it was 0.2%; in data set [16], 13.1%. Moreover, the Activity was 0.2% in [17]; 18.5% in data set [18]; 0.4% in [19]; 26.6% in data set [1]; 0.2% in data set [2]; 3.8% in [20]. Moreover, the Activity in data set [21] was found to be 1.7%; in data set [22] it was 13.3%; in data set [23], 1.2%. Moreover, the values for the IC50 in data set [6], in data set [8] and in [9] were 63.5 µM, 55.1 µM and 46.4 µM, respectively. Also, in data set [24], the outcome was Active.
For the compound `CC1=CC(Oc2cc(Cl)cc(Cl)c2)OC1=O` (stereo not drawn), the Activity in data set [5] amounted to 40.7%. The IC50 in data set [6] worked out at 89.5 µM.
Take `CC1=CC(Oc2ccc(Cl)c(Cl)c2)OC1=O` (stereo not drawn): in data set [5], the Activity stood at 43.5%. The result in [25] was Active. Besides, the IC50 in [6] amounted to 85.9 µM.
For the compound `COC(=O)/C(=C/OC1C=C(C)C(=O)O1)c1ccc(Cl)cc1` (stereo not drawn), the Activity in [5] was 61 - 61.4%; in data set [6] it was “Dose-dependent effect”; in data set [7] it was 23%; in data set [8], “Dose-dependent effect”; in data set [9], “Dose-dependent effect”; in [10], “Tde”. The Activity in data set [11] was determined as 11%; in data set [12] it was 19%; in data set [13], 26%; in data set [14], 9.5%; in [15], 0.2%; in data set [16] it was 11.3%. In addition, the Activity in data set [17] is on record as 0.4%; in data set [18], 16.1%; in [19], 0.5%; in data set [1], 20.9%; in data set [2], 0.5%; in [20] it was 4.3%. Also, the Activity came to 0.9% in data set [21], 13.7% in data set [22] and 1.5% in data set [23]. Besides, the result in data set [25] and in [24] was Active. Moreover, the IC50 in data set [6] turned out to be 67.8 µM; in data set [8] it was 56.6 µM; in data set [9], 44.7 µM.
As for `CC1=CC(Oc2ccc(F)cc2Br)OC1=O` (stereo not drawn), the Activity in data set [5] is reported as 39%. The IC50 in data set [6] is 90.3 µM.
With `COC(=O)/C(=C/OC1C=C(C)C(=O)O1)c1ccc(OC)cc1` (stereo not drawn), the values for the Activity in data set [5] and in data set [7] were 50.1% and 33%, respectively. The result in data set [25] was Active. Besides, the IC50 in data set [6] is 82.1 µM.
As to `CC1=CC(Oc2c(Br)cccc2C#N)OC1=O` (stereo not drawn), in [5], the Activity came to 43.8%. Further, in data set [6], the IC50 amounted to 87.6 µM.
